From PMC10980815, “Cell surface patching via CXCR4-targeted nanothreads for cancer metastasis inhibition” (Nature Communications, 2024)
Ends that are not written are not given here.

Assays:
4T1 cells [1] = assay: Label-free proteomics analysis; format: cell-based, murine; conditions: Fig. 4f proteomics heatmap value
Method: For proteomics analysis, 4T1 cells (5 × 10^5 cells) were seeded in 12-well plates (NEST Biotechnology). […] Cell samples were submitted for label-free proteomics analysis (Shanghai Omics-space Biotech Co., Ltd., Shanghai, China). The analysis included protein extraction, protein digestion, LC − MS/MS detection (Thermo Scientific Orbitrap-Fusion Lumos), protein quantitation and identification (MaxQuant 1.5.5.1), and bioinformatics analysis.

[2] = tested on: orthotopic 4T1 breast tumors; assay: Hydroxyproline assay in tumor tissues; format: in vivo, female BALB/c mice; set-up: unit not given here
Method: (§1) 4T1 cells (1 × 10^6 cells) were injected into the third mammary fat pad of female BALB/c mice (6–8-week). […] On day 28, blood samples, lungs and tumors were harvested.
To assess fibrosis in tumor tissues, Masson staining, Sirius staining, immunofluorescent staining of α-SMA and fibronectin, and a quantitative hydroxyproline assay were employed. For immunofluorescent staining of α-SMA and fibronectin, tumor slices were stained with anti-alpha smooth muscle actin recombinant rabbit monoclonal antibody (1:500 dilution) and anti-fibronectin mouse monoclonal antibody (1:500 dilution) at 4 °C overnight, followed by staining with goat anti-mouse IgG H&L Alexa Fluor® 488 (1:1000 dilution) and goat anti-rabbit IgG H&L Alexa Fluor® 647 (1:1000 dilution).

[3] = tested on: orthotopic 4T1 breast tumors; assay: EMT markers E-cadherin and vimentin in primary tumors (flow cytometry); format: in vivo, female BALB/c mice
Method: as §1
To investigate the epithelial-mesenchymal transition process in tumor tissues, immunofluorescent staining of E-cadherin, vimentin, MMP-9, and TGF-β, along with flow cytometry analysis of E-cadherin and vimentin, were applied. For immunofluorescent staining of E-cadherin and vimentin, tumor slices were stained with CoraLite® Plus 647 anti-mouse CD324 (E-cadherin, 1:300 dilution) and anti-vimentin mouse monoclonal antibody (1:500 dilution) at 4 °C overnight, followed by staining with goat anti-mouse IgG H&L Alexa Fluor® 488 (1:1000 dilution). For flow cytometry analysis of E-cadherin and vimentin, single-cell suspensions of tumor tissues were stained with CoraLite® Plus 647 anti-mouse CD324 (E-cadherin, 1:300 dilution) or sequentially stained with anti-vimentin recombinant rabbit monoclonal antibody and goat anti-rabbit IgG H&L Alexa Fluor® 647 (1:1000 dilution), respectively. For immunofluorescent staining of MMP-9 and TGF-β, tumor slices were separately stained with MMP9 Rabbit pAb (1:500 dilution) or anti-TGF beta 1 recombinant rabbit monoclonal antibody (1:500 dilution), followed by staining with goat anti-rabbit IgG H&L Alexa Fluor® 647 (1:1000 dilution), respectively.

4T1 cells [4] = assay: Transwell invasion assay (matrigel); format: cell-based, murine
Method: Wound healing assay and transwell migration and invasion assay were conducted to investigate in vitro metastasis inhibition. For the wound healing assay, 4T1 cells (5 × 10^5 cells) were cultured in 12-well plates (NEST Biotechnology) as monolayer with more than 90% coverage. Sterile 200 μL pipette tips were used to scrape off the cells, generating a linear cell-free area in the middle of the well. Subsequently, cells were washed by PBS to remove debris. In the stimulated group, 4T1 cells were stimulated with CXCL12 (100 ng/mL) for 1 h. […] In the P-BS-CM1 → P-CM2 group, 4T1 cells underwent consecutive treatment with P-BS-CM1 for 1 h and P-CM2 for 1 h before CXCL12 stimulation (1 mg/mL BS equivalence, CM1:CM2, 1:1 mol%). Images of the wound were recorded by a microscope at 0 h and 24 h after CXCL12 stimulation, and the wound healing rate was calculated using Image J software. For the transwell migration and invasion assay, 4T1 cells (5 × 10^5 cells) were seeded in the non-coated upper chamber (Millipore, 8 μm) or GelNest™ matrigel (NEST Biotechnology) pre-coated upper chamber. The cells underwent the same treatment conditions as wound healing assay. After 24 h of treatment, migrated or invaded cells across the membrane were stained with 0.1% crystal violet, imaged by microscope, and quantified by absorbance at 570 nm after dissolution.

LOX = assay: Immunofluorescence of LOX in lung tissues; format: in vivo, female BALB/c mice
Method: To explore the “seed-soil” crosstalk, the serum, intra-tumoral, and pulmonary concentration of LOX was determined using enzyme-linked immunosorbent assay kits (CSB-EL013041MO, CUSABIO, https://www.cusabio.com/) according to the manufacturer’s instructions. The serum, intra-tumoral, and pulmonary concentration of TGF-β was determined using mouse TGF-β ELISA Kit (Cat No.: HB1328-Mu). The formation of PMN was investigated through lung slices subjected to immunofluorescent staining of LOX, E-cadherin, and S100A8. For immunofluorescent staining of E-cadherin, Lung slices were stained with CoraLite® Plus 647 anti-mouse CD324 (E-cadherin, 1:300 dilution). For immunofluorescent staining of LOX and S100A8, Lung slices were separately stained with anti-LOX recombinant rabbit monoclonal antibody (1:500 dilution) or S100-A8 / MRP8 rabbit pAb (1:500 dilution), followed by staining with goat anti-rabbit IgG H&L Alexa Fluor® 647 (1:1000 dilution), respectively. Single-cell suspensions of lungs were analyzed using flow cytometry to assess BMDC (CD11b^+Gr1^+) with PE anti-mouse/human CD11b antibody (1:300 dilution) and FITC anti-mouse Ly-6G/Ly-6C (Gr-1) antibody (1:300 dilution). Chemokine concentrations in lungs were determined using a mouse CXCL12 ELISA kit.

[5] = i.v. days 7, 14, 21 (5 mg/kg BS equivalence; P-CM2 24 h later), analysis day 28, mouse 1 of 5

Substance	PKA C-alpha (4T1 cells [1]; replicate 1)	VDAC3 (4T1 cells [1]; replicate 1)	PKA C-alpha (4T1 cells [1]; replicate 2)	VDAC3 (4T1 cells [1]; replicate 2)	PKA C-alpha (4T1 cells [1]; replicate 3)	VDAC3 (4T1 cells [1]; replicate 3)	hydroxyproline in tumor tissues (Fig. 6b) [2, 5]	hydroxyproline in tumor tissues (Fig. 6b) ([2]; same, mouse 2 of 5)	hydroxyproline in tumor tissues (Fig. 6b) ([2]; same, mouse 3 of 5)	hydroxyproline in tumor tissues (Fig. 6b) ([2]; same, mouse 4 of 5)	hydroxyproline in tumor tissues (Fig. 6b) ([2]; same, mouse 5 of 5)	Relative fluorescence intensity of E-cadherin ([3]; replicate 1)	Relative fluorescence intensity of vimentin ([3]; replicate 1)	Relative fluorescence intensity of E-cadherin ([3]; replicate 2)	Relative fluorescence intensity of vimentin ([3]; replicate 2)	Relative fluorescence intensity of E-cadherin ([3]; replicate 3)	Relative fluorescence intensity of vimentin ([3]; replicate 3)	Relative fluorescence intensity of E-cadherin ([3]; replicate 4)	Relative fluorescence intensity of vimentin ([3]; replicate 4)	Relative fluorescence intensity of E-cadherin ([3]; replicate 5)	also measured
LGASWHRPDKCCLGYQKRPLPA [Free BS]	-0.6179	0.5272	0.3837	-0.8599	-0.4642	0.1524	0.5754	0.4638	0.4618	0.441	0.4238	125.013	279.76	109.513	205.554	122.233	194.538	126.237	224.095	145.15	Relative fluorescence intensity of vimentin ([3]; replicate 5): 192.228; Invasion content (%) (4T1 cells [4]; replicate 1): 100.41%; Invasion content (%) (4T1 cells [4]; replicate 2): 88.2%; Invasion content (%) (4T1 cells [4]; replicate 3): 97.02%; Mean fluorescence intensity of LOX in lung tissues (LOX; replicate 1): 145.665; Mean fluorescence intensity of LOX in lung tissues (LOX; replicate 2): 136.817; Mean fluorescence intensity of LOX in lung tissues (LOX; replicate 3): 150.369; Mean fluorescence intensity of LOX in lung tissues (LOX; replicate 4): 132.821; Mean fluorescence intensity of LOX in lung tissues (LOX; replicate 5): 140.21
P-BS: HPMA copolymer-BS conjugate, ~6 BS grafts per polymer (LGASWHRPDKCCLGYQKRPLPA; not fully specified (residues 11, 12); also: about 6 peptides grafted on HPMA copolymer via cysteine-maleimide thioether links)	-1.375	-0.0121	0.3768	1.023	0.8503	1.779	0.4104	0.397	0.3878	0.3734	0.3825	136.747	148.698	140.523	180.025	162.569	180.666	158.855	185.036	155.981	Relative fluorescence intensity of vimentin ([3]; replicate 5): 170.787; Invasion content (%) (4T1 cells [4]; replicate 1): 61.3%; Invasion content (%) (4T1 cells [4]; replicate 2): 50.16%; Invasion content (%) (4T1 cells [4]; replicate 3): 42.1%; Mean fluorescence intensity of LOX in lung tissues (LOX; replicate 1): 121.535; Mean fluorescence intensity of LOX in lung tissues (LOX; replicate 2): 108.102; Mean fluorescence intensity of LOX in lung tissues (LOX; replicate 3): 109.056; Mean fluorescence intensity of LOX in lung tissues (LOX; replicate 4): 97.784; Mean fluorescence intensity of LOX in lung tissues (LOX; replicate 5): 101.188
